In patent US20200239530A1, “COMPOUNDS AND METHODS OF MODULATING PROTEIN DEGRADATION” (Vividion Therapeutics, Inc., priority 2017, published 2020):

Experiments:
[1] = molecular target: T1, PPCDC Phosphopantothenoylcysteine decarboxylase (Homo sapiens, UniProt Q96CD2); experiment: Cysteine liganding, probe competition; assay type: binding
T1 construct: Cells were resuspended in cold PBS on ice and sonicated with a probe sonicator to achieve lysis; endogenous in cells
T1 sequence (Q96CD2 1-204): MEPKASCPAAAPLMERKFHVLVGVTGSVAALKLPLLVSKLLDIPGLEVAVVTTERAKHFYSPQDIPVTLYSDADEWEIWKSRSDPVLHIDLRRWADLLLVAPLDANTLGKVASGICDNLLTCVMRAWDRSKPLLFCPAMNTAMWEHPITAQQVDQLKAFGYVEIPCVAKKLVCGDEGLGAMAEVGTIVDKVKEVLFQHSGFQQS
Summary of the method: (§1)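 Lysates from probe-sonicated cells in PBS (5 mg/ml proteome) were exposed to compound for 1 hr at 25° C, then labelled with desthiobiotin iodoacetamide probe (10 mM stock) for 1 hr at 25° C. Probe-tagged peptides were streptavidin-enriched after trypsin digestion.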

[2] = molecular target: T2, HERC5 E3 ISG15--protein ligase HERC5 (Homo sapiens, UniProt Q9UII4); experiment: Cysteine liganding, probe competition; assay type: binding; conditions: for Liganded: HERC5 Res# 994, uniprot Q9UII4
T2 construct: Cells were resuspended in cold PBS on ice and sonicated with a probe sonicator to achieve lysis; endogenous in cells
T2 sequence (Q9UII4 1-1024): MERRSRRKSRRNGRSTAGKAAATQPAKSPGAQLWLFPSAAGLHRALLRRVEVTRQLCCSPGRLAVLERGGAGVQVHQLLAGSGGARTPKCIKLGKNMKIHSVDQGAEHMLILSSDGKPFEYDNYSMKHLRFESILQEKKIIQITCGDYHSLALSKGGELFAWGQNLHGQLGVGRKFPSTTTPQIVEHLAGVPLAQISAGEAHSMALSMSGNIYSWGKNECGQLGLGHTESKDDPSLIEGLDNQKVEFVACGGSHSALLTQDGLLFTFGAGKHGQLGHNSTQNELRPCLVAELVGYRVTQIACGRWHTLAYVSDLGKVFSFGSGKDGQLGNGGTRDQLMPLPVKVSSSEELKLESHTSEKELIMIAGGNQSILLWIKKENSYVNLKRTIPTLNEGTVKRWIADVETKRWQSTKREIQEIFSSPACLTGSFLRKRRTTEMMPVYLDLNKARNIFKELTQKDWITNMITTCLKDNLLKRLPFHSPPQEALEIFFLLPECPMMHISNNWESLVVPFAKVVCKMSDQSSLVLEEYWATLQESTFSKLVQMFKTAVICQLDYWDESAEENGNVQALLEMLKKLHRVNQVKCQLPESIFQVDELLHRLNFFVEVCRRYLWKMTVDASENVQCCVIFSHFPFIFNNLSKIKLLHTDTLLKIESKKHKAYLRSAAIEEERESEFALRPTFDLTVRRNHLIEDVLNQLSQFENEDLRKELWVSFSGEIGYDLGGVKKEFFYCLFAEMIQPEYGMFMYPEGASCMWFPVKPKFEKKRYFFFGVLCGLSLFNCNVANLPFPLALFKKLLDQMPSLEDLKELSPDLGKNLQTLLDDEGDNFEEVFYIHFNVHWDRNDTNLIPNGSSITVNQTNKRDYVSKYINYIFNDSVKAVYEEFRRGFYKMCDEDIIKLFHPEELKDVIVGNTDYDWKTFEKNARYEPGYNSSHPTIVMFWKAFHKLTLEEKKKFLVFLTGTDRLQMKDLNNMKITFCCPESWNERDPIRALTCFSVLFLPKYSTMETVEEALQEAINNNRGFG
Summary of the method: as §1

SMILES | 100 Max ([1]; uniprot Q96CD2) | 100 ave ([1]; uniprot Q96CD2) | 500 Max ([1]; uniprot Q96CD2) | 500 ave ([1]; uniprot Q96CD2) | Liganded [2] | 100 Max ([2]; uniprot Q9UII4) | 100 ave ([2]; uniprot Q9UII4) | 500 Max ([2]; uniprot Q9UII4) | 500 ave ([2]; uniprot Q9UII4) | Liganded ([1]; PPCDC Res# 173, uniprot Q96CD2)
O=C(CCl)Nc1cc(C(F)(F)F)cc(C(F)(F)F)c1 [KBO3] | 23.85 | 13.215 | 71.73 | 71.73 | YES | 83.4 | 83.4 | 96.8 | 96.8 | 
COc1ccc2c(c1)CCCN2C(=O)CCl [KB02] |  |  |  |  | YES |  |  |  |  | YES
